Experimental data taken from US11491100B2, “Dermal composition comprising chelator and base” (Primal Therapies, Inc., priority 2013, dated 2022).

Test: Ranking of candidate chelator and base agents by potency score
Set-up: key: 1 = most desired, 3 = least desired
Conditions: not given
Text: Methods of selecting base and chelator compositions depend on use. Compositions may be determined by ranking base, chelator and enhancer agents, from most desired to least desired, for multiple parameters such as safety, solubility, compatibility, pH, potency, taste, consistency, smell and others.
Non-toxic chelator and base compositions may be ranked according to the desired parameters of potency and approved-for-oral-consumption. A desired parameter such as potency for a candidate chelator or base may be given a score of “1” for most desired and a score of “3” for least desired. In one embodiment, candidate chelators, bases and enhancers may be ranked by FDA approval for oral consumption. Agents with a score of “1” may have approval for the desired indication and a score of “3” may not have approval or may not be approved for the desired indication. The resultant overall score may be tabulated and may be used to facilitate selection.
Microbes were cultured in growth media and plated at 10^3 CFU/well in a 96 well microtiter plate and cultured for 24 h. Wells were then treated with 10-50 μL of media only as control or with media+chelator agents, base agents, acid agents, neutral agents or enhancer agents for 30 min at RT followed by repleation in […] of fresh RPMI pH 7.2. Plates were then incubated for an additional 48-72 h prior to harvest. Wells were washed 3× in PBS and residual biofilm was stained using crystal violet. Wells were washed 4× in PBS and the amount of retained stain was measured. […] Synergistic effects were evaluated and numerous compounds were examined for their ability to synergistically act with chelators to inhibit biofilm formation (examples of some test compounds analyzed for synergy with chelators are presented in Table 2).
Screens of base components to use in compositions comprising chelator were performed. Briefly, the pH of S. mutans cultures were measured 24 and 48 hr post administration of chelator and candidate base components. Combinations of chelator, base and enhancer agents were also evaluated for affecting metabolic activity and/or metabolism of S. mutans (FIG. 3).

| Compound | POTENCY (score 1-3) |
| --- | --- |
| NCCCC[C@H](N)C(=O)O [Lysine] | 2 |

Same assay, conditions: base agents that may be used in combination with chelators

| Compound | POTENCY (score 1-3) |
| --- | --- |
| O=c1cc[nH]c(=O)[nH]1 [Uracil] | 3 |
| Cc1ncc(CO)c(CN)c1O [Pyridoxamine] | 1 |
| protamine sulfate | 2 |
| Vitamin B12 | 2 |
| O=P([O-])([O-])O.[Ca+2] [Dibasic calcium phosphate] | 3 |
| Cc1ncc(COP(=O)(O)O)c(C=O)c1O [Pyridoxal-5-phosphate] | 1 |
| OCN(CO)CO [Tris (hydroxymethyl) amine] | 2 |
| Cc1ncc(CO)c(CO)c1O [Pyridoxine] | 1 |
| Vitamin K | 1 |
| OC[C@H]1O[C@H](O[C@H]2[C@H](O)[C@@H](O)[C@H](O)O[C@@H]2CO)[C@H](O)[C@@H](O)[C@@H]1O [D-maltose] | 1 |
| Lysozyme | 1 |
| NC(CO)(CO)CO [Tris amine] | 2 |
| NC(N)=Nc1nc(CSCCC(N)=NS(N)(=O)=O)cs1 [Famotidine, reference compound] | 1 |
| CNC(=C[N+](=O)[O-])NCCSCc1ccc(CN(C)C)o1 [Remitidine, reference compound] | 1 |

Same assay, conditions: chelators that may be used in combination with base agents

| Compound | POTENCY (score 1-3) |
| --- | --- |
| O=C(O)[C@@H](S)[C@@H](S)C(=O)O [DMSA] | 1 |
| Oc1ccc(C=Cc2cc(O)cc(O)c2)cc1 [Resveratrol] | 2 |
| O=S(=O)(O)CC(S)CS (centres unmarked) [DMPS] | 1 |
| Ferrioxamines | 1 |
| Deferoxamines | 1 |
| Vitamin B12 | 1 |
| O=C(OC[C@H]1O[C@@H](OC(=O)c2cc(O)c(O)c(OC(=O)c3cc(O)c(O)c(O)c3)c2)[C@H](OC(=O)c2cc(O)c(O)c(OC(=O)c3cc(O)c(O)c(O)c3)c2)[C@@H](OC(=O)c2cc(O)c(O)c(OC(=O)c3cc(O)c(O)c(O)c3)c2)[C@@H]1OC(=O)c1cc(O)c(O)c(OC(=O)c2cc(O)c(O)c(O)c2)c1)c1cc(O)c(O)c(OC(=O)c2cc(O)c(O)c(O)c2)c1 [Tannic acid] | 1 |
| Anachelins | 1 |
| Cyclodextrins | 1 |
| COc1cc(/C=C/C(=O)CC(=O)/C=C/c2ccc(O)c(OC)c2)ccc1O [Curcumin] | 2 |
| O=P(O)(O)O[C@H]1[C@H](OP(=O)(O)O)[C@@H](OP(=O)(O)O)[C@H](OP(=O)(O)O)[C@@H](OP(=O)(O)O)[C@H]1OP(=O)(O)O [Inositol hexaphosphate] | 2 |
| Chlorophylls | 1 |
| CC(=O)N(O)CCCCCNC(=O)CCC(=O)N(O)CCCCCNC(=O)CCC(=O)N(O)CCCCCN [Deferasiroxamine B] | 1 |
| O=C(O)CN(CCOCCOCCN(CC(=O)O)CC(=O)O)CC(=O)O [EGTA] | 1 |
| O=C(O[C@@H]1Cc2c(O)cc(O)cc2O[C@@H]1c1cc(O)c(O)c(O)c1)c1cc(O)c(O)c(O)c1 [EGCG] | 1 |
| CC(=O)N(O)CCC[C@@H]1NC(=O)[C@H](CCCN(O)C(C)=O)NC1=O [Rhodotorulic acid] | 1 |
| O=c1c(O)c(-c2ccc(O)c(O)c2)oc2cc(O)cc(O)c12 [Quercetin] | 1 |
